Read-outs that look alike come from different tables or passages of the source.
Experiments:
HL-60 cells = assay: MTT-dye reduction cytotoxicity assay, HL-60; assay type: cell-based, human; conditions: for IC50: Homo sapiens, HL-60
Procedure: (§1) The research included four leukemic and three cancer human cell lines: HL-60 (acute myeloid leukemia), SKW-3 (KE-37 derivative) (T-cell leukemia), BV-173 and K-562 (chronic myeloid leukemia), MDA-MB-231 (ER-negative breast carcinoma), MCF-7 (ER-positive breast adenocarcinoma), and SaOS-2 (osteogenic sarcoma). The cells were provided from the German Collection of Microorganisms and Cell Cultures (DSMZ, Braunschweig, Germany). The solid tumor cell lines (MDA-MB-231, MCF-7, and SaOS-2) were incubated in 90% RPMI-1640 supplemented with 10% fetal bovine serum (FBS), non-essential amino acids, 1 mM sodium pyruvate, and […] human insulin as monolayer adherent cultures. The remaining cell lines were cultivated as a suspension culture in cell culture flasks at 37 °C in an incubator “BB 16-Function Line” Heraeus (Kendro, Hanau, Germany) with humidified atmosphere and 5% CO2 under standard conditions–RPMI-1640 liquid media supplemented with 10% FBS and 2 mM L-glutamine. The cells were kept in log phase by supplementing with fresh media after removing cell suspension aliquots two or three times each week.
(§2) At least eight wells were used for each concentration.

KE-37 cells = assay: MTT-dye reduction cytotoxicity assay, KE-37; assay type: cell-based, human; conditions: for IC50: Homo sapiens, KE-37
Procedure: as §1, §2

BV-173 cells = assay: MTT-dye reduction cytotoxicity assay, BV-173; assay type: cell-based, human; conditions: for IC50: Homo sapiens, BV-173
Procedure: as §1, §2

MDA-MB-231 cells = assay: MTT-dye reduction cytotoxicity assay, MDA-MB-231; assay type: cell-based, human; conditions: for IC50: Homo sapiens, MDA-MB-231
Procedure: as §1, §2

MCF-7 cells = assay: MTT-dye reduction cytotoxicity assay, MCF-7; assay type: cell-based, human; conditions: for IC50: Homo sapiens, MCF7
Procedure: as §1, §2

K-562 cells = assay: MTT-dye reduction cytotoxicity assay, K-562; assay type: cell-based, human; conditions: for IC50: Homo sapiens, K562; for Ligand Efficiency (LE) K-562: LE = pIC50/number of heavy atoms
Procedure: as §1, §2

SaOS-2 cells = assay: MTT-dye reduction cytotoxicity assay, SaOS-2; assay type: cell-based, human; conditions: for IC50: Homo sapiens, SAOS-2
Procedure: as §1, §2

[1] = MTT-dye reduction cytotoxicity assay, normal HEK-293; conditions: human, HEK-293 cells (normal human embryonic kidney)
Procedure: (§3) To assess the selectivity of the newly synthesized derivatives, they were tested on the normal human embryonic kidney HEK-293 cell line. The derived IC50 values were used to calculate the selectivity index according to the formula SI = IC50 (normal cells)/IC50 (cancer cells).
The cytotoxic activity of the examined substances was determined using Mossman’s MTT [3-(4,5-dimethylthiazol-2-yl)-2,5-diphenyltetrazolium bromide] dye reduction assay. The approach is based on the reduction of the yellow tetrazolium salt MTT to a violet formazan in live cells via mitochondrial succinate dehydrogenase. In brief, exponentially developing cells were seeded at a density of 1 × 10^5 cells per ml in 96-well flat-bottomed microplates (100 μL/well), and after 24 h of incubation at 37 °C, they were treated to varied doses of the tested substances for 72 h. At least eight wells were used for each concentration. Following the incubation with the test compounds, aliquots of 10 μL MTT solution (10 mg/mL in PBS) were applied to each well. The microplates were then incubated at 37 °C for 4 h before the MTT-formazan crystals were dissolved with 100 μL/well 5% HCOOH in 2-propanol. The MTT-formazan absorbance was measured at 580 nm using a microprocessor-controlled microplate reader (Labexim LMR-1).
The cell survival data were standardized as a percentage of the untreated control (set as 100% viability). The biological data were processed statistically using Student’s t-test, where values were considered statistically significant at p ≤ 0.05. The corresponding IC50 values were obtained to allow quantitative merit for the assessment of the relative potencies of the compounds under investigation. Each data point represents the arithmetic mean ± standard deviation (sd) of at least eight independent experiments.

[2] = tested on: HL-60, KE-37, K-562, BV-173, SaOS-2, MDA-MB-231, MCF-7 cell lines; assay: Average over the cancer cell lines tested (LE, SI); assay type: cell-based, human; conditions: average over seven cancer cell lines
Procedure: as §3
The training set of salicylaldehyde hydrazones contained 11 compounds synthesized and tested before in our Lab. Their anticancer activities were measured and expressed as IC50 values on the following cell lines: HL-60, KE-37, K-562, BV-173, SaOS-2, MDA-MB-231, and MCF-7. For the purposes of SAR analysis, the IC50 values were converted in p-units (−logIC50) and ligand efficiencies (LEs) were calculated according to the formula: LE = pIC50/n, where n is the count of non-hydrogen atoms in the molecule.

[3] = training set, some activities published before [26-32], the rest measured for this study, read-out: IC50 ± standard deviation, HL-60
[4] = training set, some activities published before [26-32], the rest measured for this study, read-out: IC50 ± standard deviation, KE-37
[5] = training set, some activities published before [26-32], the rest measured for this study, read-out: IC50 ± standard deviation, BV-173
[6] = training set, some activities published before [26-32], the rest measured for this study, read-out: IC50 ± standard deviation, MDA-MB-231
[7] = training set, some activities published before [26-32], the rest measured for this study, read-out: IC50 ± standard deviation, MCF-7
[8] = training set, some activities published before [26-32], the rest measured for this study, read-out: IC50 ± standard deviation, K-562
[9] = training set, some activities published before [26-32], the rest measured for this study, read-out: IC50 ± standard deviation, SaOS-2
[10] = SI = IC50 (HEK-293)/IC50 (cancer cells)

Compound | IC50 (HL-60 cells; [3]) [µM] | IC50 (KE-37 cells; [4]) [µM] | IC50 (BV-173 cells; [5]) [µM] | IC50 (MDA-MB-231 cells; [6]) [µM] | IC50 (MCF-7 cells; [7]) [µM] | IC50 (K-562 cells; [8]) [µM] | Ligand Efficiency (LE) K-562 (K-562 cells) | IC50 (SaOS-2 cells; [9]) [µM] | also measured
COc1ccc(O)c(/C=N/NC(=O)c2ccccc2)c1 [Compound 9] | 5.29 ± 1.2 | 3.38 ± 1 | 3.15 ± 0.8 | 4.46 ± 1.1 | 0.91 ± 0.3 | – | – | – | –
COc1cccc(/C=N/NC(=O)c2ccccc2)c1O [Compound 1] | 11.3 ± 2.6 | 9.8 ± 3.1 | 20.8 ± 4.2 | 25.3 ± 2.7 | 22.5 ± 5.4 | 27 ± 2.7 | 0.228 | 25.5 ± 6.2 | –
O=C(N/N=C/c1cc(Br)ccc1O)c1ccncc1 [Compound 5] | 4.13 ± 1.2 | 2.53 ± 1 | 0.63 ± 0.2 | 38.4 ± 2 | 0.26 ± 0.03 | 0.14 ± 0.09 | 0.360 | 146 ± 8.9 | –
O=C(N/N=C/c1cc([N+](=O)[O-])ccc1O)c1ccncc1 [Compound 8] | 15 ± 2.4 | 17 ± 3.1 | 10.2 ± 1.1 | 72.3 ± 5.6 | 0.18 ± 0.03 | 19 ± 2.7 | 0.225 | 35.7 ± 4.3 | –
O=C(N/N=C/c1cc([N+](=O)[O-])ccc1O)c1ccc(O)cc1 [Compound 7] | 14.5 ± 2.1 | 19.9 ± 2.2 | 7.62 ± 1 | > 200 | 4.95 ± 0.06 | > 200 | – | 199 ± 12 | –
O=C(N/N=C/c1cc(Br)ccc1O)c1ccc(O)cc1 [Compound 4] | 3.14 ± 1.1 | 3 ± 0.5 | – | 20.1 ± 3.9 | 8.88 ± 2.7 | 2.83 ± 0.3 | 0.277 | 50 ± 5.7 | –
COc1cccc(/C=N/NC(=O)c2ccc(O)cc2)c1O [Compound 2] | 9.2 ± 2.4 | 7.6 ± 2.1 | 7.8 ± 2 | 24.2 ± 3.8 | 19.7 ± 2.2 | 14.3 ± 2.9 | 0.231 | 19.2 ± 3.1 | –
COc1ccc(C=NNC(=O)c2ccccc2)c(O)c1 [Compound 12, 4-methoxysalicylaldehyde benzoylhydrazone] | – | – | – | – | – | – | – | – | IC50 (HL-60 cells; 72 h treatment, read-out: IC50 exp, HL-60): 0.04 ± 0.005 µM; SI (selectivity index) HL-60 (HL-60 cells; [10]): 941; IC50 (KE-37 cells; 72 h treatment, read-out: IC50 exp, KE-37): 1.99 ± 0.17 µM; SI (selectivity index) KE-37 (KE-37 cells; [10]): 19; IC50 (K-562 cells; 72 h treatment, read-out: IC50 exp, K-562): 0.03 ± 0.002 µM; SI (selectivity index) K-562 (K-562 cells; [10]): 1254; IC50 (BV-173 cells; 72 h treatment, read-out: IC50 exp, BV-173): 1.21 ± 0.11 µM; SI (selectivity index) BV-173 (BV-173 cells; [10]): 31; IC50 (SaOS-2 cells; 72 h treatment, read-out: IC50 exp, SaOS-2): 1.68 ± 0.15 µM; SI (selectivity index) SaOS-2 (SaOS-2 cells; [10]): 22; IC50 (MDA-MB-231 cells; 72 h treatment, read-out: IC50 exp, MDA-MB-231): 2.31 ± 0.25 µM; SI (selectivity index) MDA-MB-231 (MDA-MB-231 cells; [10]): 16; IC50 (MCF-7 cells; 72 h treatment, read-out: IC50 exp, MCF-7): 0.23 ± 0.02 µM; SI (selectivity index) MCF-7 (MCF-7 cells; [10]): 164; IC50 at 72 h [1]: 37.6 ± 3.41 µM; average SI [2]: 350; melting point: 182 to 183 °C

Source: publication PMC10138506, “Design, Synthesis and Cytotoxic Activity of Novel Salicylaldehyde Hydrazones against Leukemia and Breast Cancer” (International Journal of Molecular Sciences, 2023)
